In patent US20090181963A1, “3H-[1,2,3]TRIAZOLO[4,5-D]PYRIMIDINE COMPOUNDS, THEIR USE AS mTOR KINASE AND PI3 KINASE INHIBITORS, AND THEIR [sequence]” (Wyeth, priority 2008, published 2009) one finds IC50 data, which are given here for 19 compounds.

In test [1] the target is PI3 Kinase α (Homo sapiens, UniProt P42336). Nature of the test: Fluorescence polarization assay for PI3K (PI3 Kinase α). It is filed as biochemical. The conditions noted are these: diC8-PI(4,5)P2 substrate, 25 μM ATP, one hour at 25° C. A general note: In fluorescence polarisation assays a small probe gives low polarisation when free and higher when bound to something large.

Test [2] addresses PI3 Kinase γ (Homo sapiens, UniProt P48736). Nature of the test: Fluorescence polarization assay for PI3K (PI3 Kinase γ). It is filed as biochemical. As to conditions: diC8-PI(4,5)P2 substrate, 25 μM ATP, one hour at 25° C.

Sequence of PI3 Kinase γ (P48736 whole entry): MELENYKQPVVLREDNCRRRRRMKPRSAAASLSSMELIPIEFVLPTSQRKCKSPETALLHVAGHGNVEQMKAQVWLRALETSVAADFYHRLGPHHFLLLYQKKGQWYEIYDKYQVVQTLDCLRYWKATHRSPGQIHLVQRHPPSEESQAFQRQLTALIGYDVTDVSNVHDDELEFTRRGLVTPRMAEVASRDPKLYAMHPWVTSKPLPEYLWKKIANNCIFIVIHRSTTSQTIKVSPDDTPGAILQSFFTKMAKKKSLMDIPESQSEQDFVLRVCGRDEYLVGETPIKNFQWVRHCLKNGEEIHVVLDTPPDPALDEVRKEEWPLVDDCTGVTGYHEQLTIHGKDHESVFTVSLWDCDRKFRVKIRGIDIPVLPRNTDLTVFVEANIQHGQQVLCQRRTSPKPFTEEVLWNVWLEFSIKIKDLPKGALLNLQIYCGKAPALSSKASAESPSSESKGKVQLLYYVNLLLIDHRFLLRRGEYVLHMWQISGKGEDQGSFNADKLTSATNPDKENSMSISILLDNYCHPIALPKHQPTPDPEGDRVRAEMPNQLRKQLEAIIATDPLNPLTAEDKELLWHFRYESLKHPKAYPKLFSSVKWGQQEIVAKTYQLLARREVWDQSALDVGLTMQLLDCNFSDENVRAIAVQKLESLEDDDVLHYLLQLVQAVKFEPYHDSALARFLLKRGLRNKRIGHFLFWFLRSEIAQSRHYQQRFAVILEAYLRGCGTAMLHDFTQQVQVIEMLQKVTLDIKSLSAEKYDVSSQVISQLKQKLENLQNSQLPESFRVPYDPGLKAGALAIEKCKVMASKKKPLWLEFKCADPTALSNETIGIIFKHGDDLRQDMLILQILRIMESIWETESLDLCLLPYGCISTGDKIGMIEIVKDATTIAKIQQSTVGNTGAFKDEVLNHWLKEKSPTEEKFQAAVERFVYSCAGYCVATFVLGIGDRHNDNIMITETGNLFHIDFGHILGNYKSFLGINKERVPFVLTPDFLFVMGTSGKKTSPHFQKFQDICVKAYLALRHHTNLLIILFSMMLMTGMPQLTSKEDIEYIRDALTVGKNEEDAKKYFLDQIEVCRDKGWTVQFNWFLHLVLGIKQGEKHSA
Sequence of PI3 Kinase α (P42336 whole entry): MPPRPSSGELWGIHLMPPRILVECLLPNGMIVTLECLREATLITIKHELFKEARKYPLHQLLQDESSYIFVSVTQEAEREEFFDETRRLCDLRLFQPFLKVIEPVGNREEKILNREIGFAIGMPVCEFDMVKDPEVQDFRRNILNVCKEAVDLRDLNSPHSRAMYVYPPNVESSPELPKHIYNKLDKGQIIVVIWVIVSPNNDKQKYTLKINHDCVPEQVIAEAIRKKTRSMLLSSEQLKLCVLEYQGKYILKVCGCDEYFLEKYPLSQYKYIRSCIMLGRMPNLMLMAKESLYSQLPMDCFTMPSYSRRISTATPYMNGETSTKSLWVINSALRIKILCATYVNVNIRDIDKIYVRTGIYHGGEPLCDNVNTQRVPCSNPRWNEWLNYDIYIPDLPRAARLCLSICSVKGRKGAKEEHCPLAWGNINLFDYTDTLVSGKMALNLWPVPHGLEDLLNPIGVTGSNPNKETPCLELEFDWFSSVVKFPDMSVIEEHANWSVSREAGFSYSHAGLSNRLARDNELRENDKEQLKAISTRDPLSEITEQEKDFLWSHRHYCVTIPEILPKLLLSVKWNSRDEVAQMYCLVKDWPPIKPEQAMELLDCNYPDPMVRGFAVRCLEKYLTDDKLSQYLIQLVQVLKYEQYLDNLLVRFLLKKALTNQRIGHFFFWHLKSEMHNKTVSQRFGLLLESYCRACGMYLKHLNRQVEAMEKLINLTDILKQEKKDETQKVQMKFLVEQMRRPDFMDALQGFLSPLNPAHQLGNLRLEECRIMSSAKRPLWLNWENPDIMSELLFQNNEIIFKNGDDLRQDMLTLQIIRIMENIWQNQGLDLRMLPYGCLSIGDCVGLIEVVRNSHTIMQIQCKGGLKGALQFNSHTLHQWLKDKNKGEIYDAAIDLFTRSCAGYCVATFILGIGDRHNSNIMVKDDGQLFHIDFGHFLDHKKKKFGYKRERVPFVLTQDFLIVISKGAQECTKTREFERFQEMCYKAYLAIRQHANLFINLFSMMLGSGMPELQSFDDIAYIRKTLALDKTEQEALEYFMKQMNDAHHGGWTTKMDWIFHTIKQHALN
Sequence of PI3 Kinase α (P27986 whole entry partner): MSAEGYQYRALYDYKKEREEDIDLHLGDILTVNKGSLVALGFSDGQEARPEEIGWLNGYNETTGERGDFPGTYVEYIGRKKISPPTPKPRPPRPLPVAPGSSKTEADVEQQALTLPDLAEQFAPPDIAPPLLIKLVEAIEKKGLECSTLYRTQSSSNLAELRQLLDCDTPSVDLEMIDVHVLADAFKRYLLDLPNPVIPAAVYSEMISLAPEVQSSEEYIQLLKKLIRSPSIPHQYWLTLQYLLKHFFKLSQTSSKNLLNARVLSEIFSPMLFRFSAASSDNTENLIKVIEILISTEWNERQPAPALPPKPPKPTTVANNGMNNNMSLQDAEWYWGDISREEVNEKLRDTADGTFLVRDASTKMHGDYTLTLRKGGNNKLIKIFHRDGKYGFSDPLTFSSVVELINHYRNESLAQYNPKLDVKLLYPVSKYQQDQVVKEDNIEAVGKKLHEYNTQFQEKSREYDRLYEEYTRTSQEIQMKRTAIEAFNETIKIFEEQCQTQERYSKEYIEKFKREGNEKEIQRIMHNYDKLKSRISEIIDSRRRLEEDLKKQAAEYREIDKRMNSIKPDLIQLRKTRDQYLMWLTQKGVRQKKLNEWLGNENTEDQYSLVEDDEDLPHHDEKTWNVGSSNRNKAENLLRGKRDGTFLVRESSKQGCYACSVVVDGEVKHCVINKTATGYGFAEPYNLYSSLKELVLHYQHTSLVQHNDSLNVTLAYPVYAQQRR

For `O=C(Nc1ccccc1)Nc1ccc(-c2nc(N3CCOCC3)c3nnn(CC4CN(Cc5ccccc5)C4)c3n2)cc1` [Example 191, 1-(4-{3-[(1-benzylazetidin-3-yl)methyl]-7-morpholin-4-yl-3H-[1,2,3]triazolo[4,5-d]pyrimidin-5-yl}phenyl)-3-phenylurea], the values for the IC50 in test [1] and in test [2] were 91 nM and 329 nM, respectively.
In the same order, the values of `CCn1nnc2c(N3CCOCC3)nc(-c3ccc(NC(=O)Nc4ccc(C(=O)NCCN5CCN(C)CC5)cc4)cc3)nc21` [Example 49, 4-({[4-(3-ethyl-7-morpholin-4-yl-3H-[1,2,3]triazolo[4,5-d]pyrimidin-5-yl)phenyl]carbamoyl}amino)-N-[2-(4-methylpiperazin-1-yl)ethyl]benzamide] are under 3.1 nM and 25 nM.
The matching figures for `O=C(Nc1ccc(-c2nc(N3CCOCC3)c3nnn(C4CC4)c3n2)cc1)Nc1cccs1` [Example 80, 1-(4-(3-cyclopropyl-7-morpholino-3H-[1,2,3]triazolo[4,5-d]pyrimidin-5-yl)phenyl)-3-(thiophen-2-yl)urea]: 3 nM and 19.5 nM.
The matching figures for `CC(C)(C)OC(=O)N1CC(Cn2nnc3c(N4CCOCC4)nc(-c4ccc(NC(=O)Nc5ccccc5)cc4)nc32)C1` [Example 188, tert-butyl 3-[(7-morpholin-4-yl-5-{4-[(phenylcarbamoyl)amino]phenyl}-3H-[1,2,3]triazolo[4,5-d]pyrimidin-3-yl)methyl]azetidine-1-carboxylate]: 19.5 nM and 518 nM.
`CNC(=O)c1ccc(Cn2nnc3c(N4CCOCC4)nc(-c4cccc(O)c4)nc32)cc1` [Example 207, 4-{[5-(3-hydroxyphenyl)-7-morpholin-4-yl-3H-[1,2,3]triazolo[4,5-d]pyrimidin-3-yl]methyl}-N-methylbenzamide]: the IC50 in test [1] amounted to 342 nM; in test [2], 2640 nM.
The matching figures for `CCn1nnc2c(N3CCOCC3)nc(-c3ccc(NC(=O)Nc4ccc(C(=O)N5CCN[C@H](C)C5)cc4)cc3)nc21` [Example 54, 1-[4-(3-ethyl-7-morpholin-4-yl-3H-[1,2,3]triazolo[4,5-d]pyrimidin-5-yl)phenyl]-3-(4-{[(3R)-3-methylpiperazin-1-yl]carbonyl}phenyl)urea]: under 1.8 nM and 7 nM.
The matching figures for `Cn1cccc1CN1CCC(n2nnc3c(N4CCOCC4)nc(-c4cncc(O)c4)nc32)CC1` [Example 19, 5-(3-{1-[(1-methyl-1H-pyrrol-2-yl)methyl]piperidin-4-yl}-7-morpholin-4-yl-3H-[1,2,3]triazolo[4,5-d]pyrimidin-5-yl)pyridin-3-ol]: 83 nM and 277 nM.
As to `COC(Cn1nnc2c(N3CCOCC3)nc(-c3ccc(NC(=O)Nc4ccc(C(N)=O)cc4)cc3)nc21)OC` [Example 182, 4-[({4-[3-(2,2-dimethoxyethyl)-7-morpholin-4-yl-3H-[1,2,3]triazolo[4,5-d]pyrimidin-5-yl]phenyl}carbamoyl)amino]benzamide], the IC50 was 4 nM in test [1] and 27 nM in test [2].
The matching figures for `O=C(NCCCN1CCCC1)c1ccc(Cn2nnc3c(N4CCOCC4)nc(-c4cccc(O)c4)nc32)cc1` [Example 211, 4-{[5-(3-hydroxyphenyl)-7-morpholin-4-yl-3H-[1,2,3]triazolo[4,5-d]pyrimidin-3-yl]methyl}-N-(3-pyrrolidin-1-ylpropyl)benzamide]: 289 nM and 2730 nM.
Take `O=C(Nc1ccc(-c2nc(N3CCOCC3)c3nnn(C4CCN(Cc5ccccc5)CC4)c3n2)cc1)Nc1cccc(Cl)c1` [Example 170, 1-{4-[3-(1-benzylpiperidin-4-yl)-7-morpholin-4-yl-3H-[1,2,3]triazolo[4,5-d]pyrimidin-5-yl]phenyl}-3-(3-chlorophenyl)urea]: the IC50 worked out at 5630 nM in test [1] and 10400 nM in test [2].
Take `CNCCNC(=O)Nc1ccc(-c2nc(N3CCOCC3)c3nnn(CC(F)(F)F)c3n2)cc1` [Example 140, 1-[2-(methylamino)ethyl]-3-{4-[7-morpholin-4-yl-3-(2,2,2-trifluoroethyl)-3H-[1,2,3]triazolo[4,5-d]pyrimidin-5-yl]phenyl}urea]: the IC50 in test [1] is 26.5 nM; in test [2], 118 nM.
The matching figures for `CC(=O)NCCn1nnc2c(N3CCOCC3)nc(-c3cccc(CO)c3)nc21` [Example 8, N-(2-{5-[3-(hydroxymethyl)phenyl]-7-morpholin-4-yl-3H-[1,2,3]triazolo[4,5-d]pyrimidin-3-yl}ethyl)acetamide]: 86 nM and 196 nM.
Turning to `COC(Cn1nnc2c(N3CCOCC3)nc(-c3ccc(NC(=O)Nc4ccc(F)cc4)cc3)nc21)OC` [Example 180, 1-{4-[3-(2,2-dimethoxyethyl)-7-morpholin-4-yl-3H-[1,2,3]triazolo[4,5-d]pyrimidin-5-yl]phenyl}-3-(4-fluorophenyl)urea], the IC50 in test [1] turned out to be 67.5 nM; in test [2] it was 152 nM.
In the same order, the values of `CN(C)CCNC(=O)Cn1nnc2c(N3CCOCC3)nc(-c3cccc(CO)c3)nc21` [Example 239, N-[2-(dimethylamino)ethyl]-2-{5-[3-(hydroxymethyl)phenyl]-7-morpholin-4-yl-3H-[1,2,3]triazolo[4,5-d]pyrimidin-3-yl}acetamide] are 1130 nM and 5060 nM.
The matching figures for `Cc1ccc(CN2CCC(n3nnc4c(N5CCOCC5)nc(-c5ccc(NC(=O)NCCN(C)C)cc5)nc43)CC2)s1` [Example 158, 1-(2-(dimethylamino)ethyl)-3-(4-(3-(1-((5-methylthiophen-2-yl)methyl)piperidin-4-yl)-7-morpholino-3H-[1,2,3]triazolo[4,5-d]pyrimidin-5-yl)phenyl)urea]: 74.5 nM and 342 nM.
Take `CC(C)(C)OC(=O)N1CCC(n2nnc3c(N4CCOCC4)nc(-c4ccc(NC(=O)Nc5ccc(F)cc5)cc4)nc32)CC1` [Example 165, tert-butyl 4-[5-(4-{[(4-fluorophenyl)carbamoyl]amino}phenyl)-7-morpholin-4-yl-3H-[1,2,3]triazolo[4,5-d]pyrimidin-3-yl]piperidine-1-carboxylate]: the results for the IC50 in test [1] and in test [2] were 151 nM and 3580 nM, respectively.
In the same order, the values of `Oc1cncc(-c2nc(N3CCOCC3)c3nnn(C4CCN(Cc5ccco5)CC4)c3n2)c1` [Example 13, 5-{3-[1-(2-furylmethyl)piperidin-4-yl]-7-morpholin-4-yl-3H-[1,2,3]triazolo[4,5-d]pyrimidin-5-yl}pyridin-3-ol] are 31 nM and 111 nM.
In the same order, the values of `CC(C)(C)OC(=O)Cn1nnc2c(N3CCOCC3)nc(-c3ccc(NC(=O)Nc4ccncc4)cc3)nc21` [Example 234, tert-butyl (7-morpholin-4-yl-5-{4-[(pyridin-4-ylcarbamoyl)amino]phenyl}-3H-[1,2,3]triazolo[4,5-d]pyrimidin-3-yl)acetate] are 74 nM and 173 nM.
The matching figures for `O=C(Nc1cccnc1)c1ccc(Cn2nnc3c(N4CCOCC4)nc(-c4cccc(O)c4)nc32)cc1` [Example 216, 4-{[5-(3-hydroxyphenyl)-7-morpholin-4-yl-3H-[1,2,3]triazolo[4,5-d]pyrimidin-3-yl]methyl}-N-pyridin-3-ylbenzamide]: 58 nM and 361 nM.

As a reminder, the IC50 is the midpoint of a concentration-inhibition curve. Read a low IC50 as higher potency.
